Reference: the OPERA property sets (Mansouri et al. 2018)
Converted amounts (≈) assume the structure as drawn. Where a SMILES comes first, the peptide text is derived from it.

Work on `CCCCCCCCCC1(CC)C(=O)NC(=O)NC1=O` yielded a logP of 4.
With `CC(C)(C)OCCO` the logP was 0.39.
`CN(C)C(=O)COC(=O)c1ccccc1O` gave a logP of 1.21.
With `CCn1ccc(=O)c(O)c1C` the logP was -0.31.
`CCCCCCCCC(C)=O` showed a logP of 3.73.
`C=CCOc1ccccc1OCC(CNC(C)C)OC(=O)C1CC1` (stereo not given) showed a logP of 3.01.
`COC(=O)C1CCN1CC(O)Cn1ccnc1` (stereo not given) gave a logP of -0.29.
For `C[N+](C)(C)CC1CCCC1.[I-]`, the logP was -2.
Compound `O=C(O)CNC(=O)c1ccccc1I` has a logP of 0.97.
For `C=CCC1(CC(C)O)C(=O)NC(=O)NC1=O` (stereo not given), the logP was -0.05.
`CCNC(=O)Nc1ncc([N+](=O)[O-])s1` showed a solubility of 1390 µM (≈ 300 µg/mL).
For `CSc1ccc(C(N)=S)cc1`, the logP was 2.01.
`COC(=O)C1=C(C)NC(C)=C(C(=O)OCC(C)C)C1c1ccccc1[N+](=O)[O-]` (stereo not given) showed a logP of 3.26.
In the case of `NS(=O)(=O)c1nn2c(=Nc3cccc(F)c3)snc2s1`, the logP is reported as 3.06.
With `O=[N+]([O-])c1nc[nH]c1I` the logP was 0.28.
In the case of `CC(C)(C)C(O)C(Oc1ccc(Cl)cc1)n1cncn1` (stereo not given), the logP is reported as 2.9.
`CCCCC(OC(Cc1ccccc1)C(=O)N1CCC(OCOC)CC1)C(=O)NC(CC1CCCCC1)C(O)CC(C(=O)NCCNc1noc(N)n1)C(C)C` (stereo not given) gave a logP of 4.5.
Compound `CCCCC(=O)CCCC` has a logP of 2.88.
Work on `S=C=Nc1ccc(I)cc1` yielded a logP of 4.22.
In the case of `CCCCOC(=O)c1ccccc1C(=O)OCCCC`, the logP is reported as 4.5.
`CCn1cc(C(=O)O)c(=O)c2cc(F)c(N3CCNCC3)c(F)c21` showed a logP of -0.57.
Compound `CCCOC(=O)c1ccccc1O` has a logP of 3.8.
`COC(=O)c1c[nH]c2ccccc12` showed a logP of 2.57.
With `O=P(O)(O)CN(CP(=O)(O)O)CP(=O)(O)O` the logP was -3.53.
Work on `O=[N+]([O-])c1ccc2c(c1)Cc1ccccc1-2` yielded a logP of 3.37.
`CCC(=O)OC1(c2ccccc2)CCN(C)CC1CC` (stereo not given) showed a logP of 3.61.
In the case of `CCCCCCNC(=S)NC`, the logP is reported as 2.31.
With `CC(CO)CO` the logP was 0.24.
`CC(NC(CCc1ccccc1)C(=O)O)C(=O)N1C(C(=O)O)CC2CCCC21` (stereo not given) gave a logP of 0.22.
Compound `CCCCCCC(C)=O` has a logP of 2.37.
In the case of `CC(C)c1ccc(NC(=O)CN(CC(=O)O)CC(=O)O)cc1Br`, the logP is reported as -0.08.
For `CCCCCCOC(=O)C1=C=CC(=O)NC(=O)N1`, the logP was 1.76.
Compound `O=[N+]([O-])c1cc(C(F)F)c(Nc2ncc(C(F)(F)F)cc2Cl)c([N+](=O)[O-])c1` has a logP of 3.52.
Work on `ClC=C1C2C(Cl)C(Cl)C(C2Cl)C1(CCl)CCl` (stereo not given) yielded a logP of 5.35.
In the case of `O=C1c2ccccc2C(=O)C1C(=O)C(c1ccccc1)c1ccccc1`, the logP is reported as 4.27.
`COc1cc(CC(=O)O)ccc1O` gave a logP of 0.33.
`CC(=O)NCCc1ccccc1` showed a logP of 1.19.
`Clc1cc2c(Cl)c(Cl)c(Cl)c(Cl)c2c(Cl)c1Cl` showed a logP of 8.2.
`CCCCCCOCCOCCO` gave a logP of 1.7.
`[N-]=[N+]=CC(=O)OC[C@H](N)C(=O)O` showed a logP of -2.
With `Cc1ccc(S(=O)(=O)CC(=O)c2ccccc2)cc1` the logP was 2.45.
Compound `Brc1ccc(O[Si]23OCCN(CCO2)CCO3)cc1` has a logP of 0.58.
`COc1ccccc1OCC(O)CO` (stereo not given) gave a logP of 1.39.
`CC(=O)N[C@H](C(=O)N[C@@H](C)C(N)=O)C(C)C` (Ac-Val-Ala-NH2) showed a logP of -1.14.
With `Cc1cc(=O)oc2cc(C3OC(C(=O)O)C(O)C(O)C3O)ccc12` (stereo not given) the logP was -0.39.
Compound `COc1ccc(C(=O)CS(=O)(=O)c2ccc(C)cc2)cc1` has a logP of 2.47.
`CNC(=O)Oc1cccc2c1OC(C)(C)C2` showed a solubility of 1450 µM (≈ 320 µg/mL).
In the case of `CCN(CC)P(=O)(N(C)C)N(C)C`, the logP is reported as 0.66.
`CC(O)(C(=O)O)c1ccccc1` (stereo not given) gave a logP of 0.8.
Compound `CNC(=O)CCC(=O)c1cccnc1` has a logP of -0.69.
Work on `CCCCC(NC(Cc1ccccc1)C(=O)N1CCC(OCOC)CC1)C(=O)NC(CC1CCCCC1)C(O)CC(C(=O)NCCNc1n[nH]c(N)n1)C(C)C` (stereo not given) yielded a logP of 4.2.
Compound `COC(=O)C1CC(=O)N(C)C1` (stereo not given) has a logP of -0.74.
Compound `O=c1[nH]cnc2c1ncn2C1CC(O)C(CO)O1` (stereo not given) has a logP of -1.71.
Work on `Nc1c(Oc2ccccc2)c(Oc2ccccc2)c(N)c2c1C(=O)c1ccccc1C2=O` yielded a logP of 5.19.
Work on `COCOCCn1cnc2c(=N)n(C)c(=O)[nH]c21` yielded a logP of -1.52.
Compound `Brc1cc2oc3cc(Br)c(Br)cc3c2cc1Br` has a logP of 6.1 and a solubility of 0.145 µM (≈ 0.07 µg/mL).
Work on `COc1sc(C(=O)Nc2nn[nH]n2)c(OC(C)C)c1Br` yielded a logP of 1.35.
`O=C1CC2C(=O)NCC2CN1` (stereo not given) gave a logP of -2.11.
In the case of `Cc1cc(C)c(N)cc1C`, the logP is reported as 2.27.
`CC(=O)Oc1cc(C(C)C)c(OCCN(C)C)cc1C` showed a logP of 3.17.
`Clc1ccc2ccc(Cl)cc2c1` gave a logP of 4.81.
`CC(C)=NNc1ccc([N+](=O)[O-])cc1[N+](=O)[O-]` showed a logP of 3.05.
With `CC(C)/N=c1/cc2n(-c3ccc(Cl)cc3)c3ccccc3nc-2cc1Nc1ccc(Cl)cc1` the logP was 7.66.
`CCCCCCCCCCCCN1CC(C(=O)O)CC1=O` (stereo not given) gave a logP of 2.6.
Work on `COC(=O)c1ccccc1C(=O)OC` yielded a logP of 1.6.
Compound `Nc1ccc2nc(S(N)(=O)=O)sc2c1` has a logP of 0.52.
`CC(=O)CCC(C)C` gave a logP of 1.88.
Compound `CCCCc1c(C)nc(NCC)nc1O` has a logP of 2.22.
With `CCC(C(=O)Oc1ccccc1)C(C)C` (stereo not given) the logP was 4.2.
For `CCCC(=NOCC)C1=C(O)CC(CC(C)SCC)CC1=O` (stereo not given), the logP was 4.38.
`Nc1ccc(O)c([N+](=O)[O-])c1` showed a logP of 0.96.
With `C=CCOCCO` the logP was -0.1.
`CN(C)C(=O)n1nc(C(C)(C)C)nc1SCC(=O)O` gave a logP of 1.62.
Work on `CCCCCCc1ccc(N)cc1` yielded a logP of 4.21.
